{
  "source": "patent US11207252B2",
  "about": "“Synergistic preservative blends” (priority 2013, dated 2021)",
  "key": {"[1]": {"tested_on": "mixed inoculum of Staphylococcus aureus ATCC 6538, Pseudomonas aeruginosa ATCC 9027 and Escherichia coli ATCC 8739", "assay": "Challenge test, bacteria, in unpreserved shampoo (Shampoo ULD)", "conditions": "room temperature, Example 1 at 1% or its components at 0.06% sorbic acid, 0.2% benzyl alcohol, 0.37% 1,2-propanediol, 0.37% 1,4-butanediol", "method": "A mixed inoculum containing approximately equal amounts of Staphylococcus aureus ATCC 6538, Pseudomonas aeruginosa ATCC 9027 and Escherichia coli ATCC 8739 was prepared according to the following procedure:\nOne colony of each bacteria strain was transferred from a stock culture to a tryptic soy agar plate which was incubated for 18-24 h at 37±2° C. Subsequently, some colonies of each of the thus-obtained cultures were transferred to a tryptic soy broth tube which was again incubated for 18-24 h at 37±2° C. to obtain a bacteria subculture, 200 μL of which were added to 2 mL of NaCl-peptone solution in a sterile plastic tube to obtain an inoculum containing approximately 10^9 cfu/mL of the respective bacterium. Finally, the mixed inoculum was prepared by mixing equal volumes of each inoculum.\nFor comparison purposes, additional 20 g samples were tested using equivalent amounts of each of the components of the preservative composition either alone or in two- or three-component combinations. Each sample was then inoculated with 200 μL of the mixed inoculum obtained in step A) and shaken vigorously to obtain a homogeneous contamination. The samples were then stored at room temperature and the bacteria count was determined in intervals of 7 days by taking 200 μL samples, mixing each of them with 1.8 mL of inactivation medium, and homogeneously plating 100 μL of the resulting mixtures on the surface of agar plates which were incubated for 2-3 days at 37±2° C. After the incubation period the colonies formed on the agar plates were counted and the results translated into cfu/mL. If necessary, serial dilutions in NaCl-peptone were prepared to cope with high bacteria counts."}, "[2]": {"tested_on": "mixed inoculum of Candida albicans ATCC 10231 and Aspergillus niger ATCC 16404", "assay": "Challenge test, fungi, in unpreserved shampoo pH 5.5 (Table 2)", "conditions": "shampoo of Table 2, pH 5.5, Example 1 at 1% or its components at 0.06% sorbic acid, 0.2% benzyl alcohol, 0.37% 1,2-propanediol, 0.37% 1,4-butanediol"}},
  "data": [
    {"smiles": "C/C=C/C=C/C(=O)O", "note": "[Sorbic Acid]", "values": [
      {"measurement": "Mixed Bacteria Germ Count, 7 days", "setting": "[1]; 7 days", "value": ">10^4 cfu/g"},
      {"measurement": "Mixed Bacteria Germ Count, 14 days", "setting": "[1]; 14 days", "value": ">10^3 cfu/g"},
      {"measurement": "Mixed Bacteria Germ Count, 21 days", "setting": "[1]; 21 days", "value": "6.7 × 10^2 cfu/g"},
      {"measurement": "Mixed Bacteria Germ Count, 28 days", "setting": "[1]; 28 days", "value": "2.0 × 10^1 cfu/g"},
      {"measurement": "Mixed Fungi Germ Count, 7 days", "setting": "[2]; 7 days", "value": ">10^5 cfu/g"},
      {"measurement": "Mixed Fungi Germ Count, 14 days", "setting": "[2]; 14 days", "value": ">10^4 cfu/g"},
      {"measurement": "Mixed Fungi Germ Count, 21 days", "setting": "[2]; 21 days", "value": ">10^5 cfu/g"},
      {"measurement": "Mixed Fungi Germ Count, 28 days", "setting": "[2]; 28 days", "value": ">10^3 cfu/g"}
    ]}
  ]
}
